Like-named read-outs stand apart in the source and are kept apart here.
What was measured:
[1] = system: glioblastoma (SNB-19) cells; experiment: WST-1 cell viability assay, SNB-19; format: cell-based, human; conditions: for IC50: WST-1, 72 h
Method: (§1) Evaluation of the effect of new betulin derivatives on the viability of the cultured cells was performed using the WST-1(water soluble tetrazolium salt) assay. Betulin 1 and cisplatin were used as the reference compounds.
(§2) The synthesized compounds and references were tested for cytotoxic activity in vitro against human cancer cell lines such as amelanotic melanoma (C-32, ATCC, Rockville, MD, USA), glioblastoma (SNB-19, DSMZ, Braunschweig, Germany), and breast cancer (T47D, and MDA-MB-231, ATCC, Rockville, MD, USA). Cell cultures were maintained using DMEM (Lonza, Basel, Switzerland) supplemented with 10% fetal bovine serum (FBS) (Biological Industries Cromwell, CT, USA) and penicillin (10,000 U/mL) –streptomycin (10 mg/mL) mix (Lonza, Basel, Switzerland).
(§3) Cultures were performed in 96-well plates (Nunc Thermo Fisher Scientific, Waltham, MA, USA). Cells were seeded at 5 × 10^4/well and incubated for 24 h (at 37 °C, 5% CO2, constant humidity). Then, the medium was replaced with a fresh one with the addition of test compounds in the concentration: 25; 12.5; 6.25; 3.12; 1.56; 0.78; 0.39; 0 µg/mL and incubated again for a further 72 h. After this time, the WST-1 test (Roche Molecular Biochemicals, Mannheim, Germany) was performed to assess the metabolic activity of the cells. The principle of the WST-1 colorimetric test is based on the ability of live cells to decompose bright red tetrazole salts of WST-1 to dark red formazan. The reaction is mediated by mitochondrial dehydrogenases and correlates with the number of cells and their metabolic activity. The absorbance was measured at λ = 450 nm with a UVM340 microplate reader (Biogenet, Józefów, Poland). Results were expressed as a mean value of at least three independent experiments performed in triplicate.

[2] = system: amelanotic melanoma (C-32) cells; experiment: WST-1 cell viability assay, C-32; format: cell-based, human; conditions: WST-1, 72 h
Method: as §1, §2, §3

breast cancer T47D cells = experiment: WST-1 cell viability assay, T47D; format: cell-based, human; conditions: for IC50: read-out: IC50 ± SD, T47D
Method: as §1, §2, §3

[3] = system: breast cancer MDA-MB-231 cells; experiment: WST-1 cell viability assay, MDA-MB-231; format: cell-based, human; conditions: for IC50: read-out: IC50 ± SD, MDA-MB-231
Method: as §1, §2, §3

[4] = RP-TLC experimental lipophilicity; format: physicochemical; conditions: for RM0 / logPTLC: RP-TLC; for RM0: acetone/Tris buffer pH 7.4, extrapolated to zero acetone; for logPTLC: from RM0 by calibration equation; for -b: slope of regression plot RM = RM0 + bC
From the text: Lipophilicity is an important physicochemical parameter related to the biological activity of compounds. This descriptor, contained in Lipiński’s rule of five, concerns the transport of a compound through the biological membrane system and the formation of a compound–receptor complex. To assess the lipophilic nature of triterpenoids 3–5, 6a–6e, and 7a–7e, the reverse phase chromatography (RP-TLC) method was used (chromatographic procedure by RP-TLC is included in the Supplementary Materials). The theoretical characteristics of the chromatographic parameters (RM0, log PTLC) of the tested derivatives were also performed. […]
Chromatographic procedure by RP-TLC
The experimental lipophilicity parameters was determined using reversed-phase thin-layer chromatography (RP-TLC). The stationary phase was an aluminium backed silica gel RP-18 F254 S plates (Merck, Darmstadt, Germany). Chloroform solutions of reference compounds […]
(acetanilide, 4-bromoacetophenone, benzophenone, anthracene, DDT) and triterpenes 3-5, 6a-6e and 7a-7e were spotted on to the plates in the amount of 2 µL. The chromatograms were performed in triplicate for each compound. The chromatographic chambers were filled of mobile phases consisting of a mixture of acetone (POCh, Gliwice, Poland) and aqueous solution of buffer Tris [(tris-hydroxymethyl)aminomethane] (Fluka, Loughborough, 0.2 M, pH 7.4). The percent acetone volume was varied within the range of 90-60%, in 5% increments. The spots of compounds were visualized by spraying the plates with 10% ethanolic solution of sulphuric acid (VI) and heating for 3 min at 110°C [60]]. The RM values were calculated by the equation RM = log (1/Rf-1) on the basis of average Rf values. The RM0 parameters were obtained by extrapolating on the acetone content to zero, according to the equation RM = RM0 + bC (C – the percentage concentration of acetone in the mobile phase, b – the slope of the regression plot).
The experimental lipophilicity as log PTLC for triterpenes 3-5, 6a-6e and 7a-7e was calculated […]
obtained on the correlation between the literature log Plit values and the experimental RM0 values […]
Table S5. The theoretical values of lipophilicity for tested compounds 3-5, 6a-6e and 7a- […]
Table S6. The correlation matrix for theoretically obtained lipophilicity parameters of compounds 3-5, 6a-6e and 7a-7e. […]

[5] = Homo sapiens, SNB-19, 72 h, read-out: IC50 ± SD, SNB-19
[6] = Homo sapiens, C32, 72 h, read-out: IC50 ± SD, C-32
[7] = Homo sapiens, SNB-19, 72 h, Table 5, betulonic/betulinic acid derivatives, read-out: IC50, SNB-19
[8] = Homo sapiens, C32, 72 h, Table 5, betulonic/betulinic acid derivatives, read-out: IC50, C-32

SMILES	RM0 [4]	logPTLC [4]	-b [4]	IC50 [1, 5]	IC50 [2, 6]	melting point	IC50 (breast cancer T47D cells; Homo sapiens, T47D, 72 h)	IC50 [1, 7]	IC50 [2, 8]	also measured
C=C(C)[C@@H]1CC[C@]2(CO)CC[C@]3(C)[C@H](CC[C@@H]4[C@@]5(C)CC[C@H](O)C(C)(C)[C@@H]5CC[C@]43C)[C@@H]12 [Betulin]										IC50 ([1]; Homo sapiens, SNB-19, read-out: IC50 ± SD, SNB-19): 9.93 ± 0.25 µM; IC50 ([2]; Homo sapiens, C32, read-out: IC50 ± SD, C-32): 15.6 ± 1.11 µM; IC50 (breast cancer T47D cells; Homo sapiens, T47D, WST-1, 72 h): > 50 µM; IC50 ([3]; Homo sapiens, MDA-MB-231, WST-1, 72 h): 7.76 ± 1.87 µM
N.N.[Cl][Pt][Cl] [Cisplatin, reference compound]										IC50 ([1]; read-out: IC50 ± SD, SNB-19): 5.29 ± 0.12 µM; IC50 ([2]; read-out: IC50 ± SD, C-32): 4.29 ± 0.65 µM; IC50 (breast cancer T47D cells; WST-1, 72 h): 6.26 ± 1.24 µM; IC50 ([3]; WST-1, 72 h): 5.47 ± 0.05 µM
C=C(CO)[C@@H]1CC[C@]2(COC(C)=O)CC[C@]3(C)C(CCC4[C@@]5(C)CC[C@H](OC(C)=O)C(C)(C)C5CC[C@]43C)C12 (stereo partly drawn) [Compound 3, 3,28-Diacetyl-30-hydroxybetulin]	5.655	7.362	0.064							
C=C(COP(=O)(OCC)OCC)[C@@H]1CC[C@]2(COC(C)=O)CC[C@]3(C)C(CCC4[C@@]5(C)CC[C@H](OC(C)=O)C(C)(C)C5CC[C@]43C)C12 (stereo partly drawn) [Compound 4, 3,28-Diacetoxy-30-diethoxyphosphoryloxybetulin]	5.740	7.470	0.064	5.01 ± 0.78 µM	33.9 ± 1.59 µM	61 to 63 °C	1.3 ± 0.13 µM			IC50 ([3]; Homo sapiens, MDA-MB-231, 72 h): 14.5 ± 1.37 µM
C=C(COP(=O)(OCC)OCC)C1CCC2(CO)CCC3(C)C(CCC4C5(C)CCC(O)C(C)(C)C5CCC43C)C12 (stereo not drawn) [Compound 5, 30-Diethoxyphosphoryloxybetulin]	3.719	4.914	0.046	10.9 ± 1.33 µM	43.5 ± 2.5 µM	194 to 195 °C	1.04 ± 0.14 µM			IC50 ([3]; Homo sapiens, MDA-MB-231, 72 h): 0.4 ± 0.02 µM
C#CC(=O)OC[C@]12CC[C@@H](C(=C)COP(=O)(OCC)OCC)C1C1CCC3[C@@]4(C)CC[C@H](OC(=O)C#C)C(C)(C)C4CC[C@@]3(C)[C@]1(C)CC2 (stereo partly drawn) [Compound 6a, 30-Diethoxyphosphoryloxy-3,28-dipropynoylbetulin]	6.893	8.929	0.080			127 to 130 °C	9.5 ± 0.74 µM			
C=C(COP(=O)(OCC)OCC)[C@@H]1CC[C@]2(COC(=O)C#CC)CC[C@]3(C)C(CCC4[C@@]5(C)CC[C@H](OC(=O)C#CC)C(C)(C)C5CC[C@]43C)C12 (stereo partly drawn) [Compound 6b, 3,28-Di(2-butynoyl)-30-diethoxyphosphoryloxybetulin]	6.884	8.917	0.078	4.65 ± 0.51 µM	> 50 µM	66 to 70 °C	> 50 µM			IC50 ([3]; Homo sapiens, MDA-MB-231, 72 h): 21.2 ± 1.24 µM
C=C(COP(=O)(OCC)OCC)[C@@H]1CC[C@]2(COC(=O)C#CC3CC3)CC[C@]3(C)C(CCC4[C@@]5(C)CC[C@H](OC(=O)C#CC6CC6)C(C)(C)C5CC[C@]43C)C12 (stereo partly drawn) [Compound 6c, 3,28-Di(2-cyclopropylpropynoyl)-30-diethoxyphosphoryloxybetulin]	6.419	8.330	0.071	> 50 µM	> 50 µM	67 to 70 °C	> 50 µM			IC50 ([3]; Homo sapiens, MDA-MB-231, 72 h): > 50 µM
C#CCOC(=O)OC[C@]12CC[C@@H](C(=C)COP(=O)(OCC)OCC)C1C1CCC3[C@@]4(C)CC[C@H](OC(=O)OCC#C)C(C)(C)C4CC[C@@]3(C)[C@]1(C)CC2 (stereo partly drawn) [Compound 6e, 30-Diethoxyphosphoryloxy-3,28-dipropargyloxycarbonyloxybetulin]	6.490	8.419	0.076	9.23 ± 0.57 µM	11.4 ± 0.76 µM	129 to 131 °C	> 50 µM			
C#CCOC(=O)OC[C@]12CC[C@@H](C(=C)COP(=O)(OCC)OCC)C1C1CCC3[C@@]4(C)CC[C@H](O)C(C)(C)C4CC[C@@]3(C)[C@]1(C)CC2 (stereo partly drawn) [Compound 7e, 30-Diethoxyphosphoryloxy-28-propargyloxycarbonyloxybetulin]	5.302	6.916	0.063	1.59 ± 0.09 µM	3.97 ± 0.86 µM	172 to 174 °C	> 50 µM			
C=C(COP(=O)(OCC)OCC)[C@@H]1CC[C@]2(C(=O)O)CC[C@]3(C)C(CCC4[C@@]5(C)CCC(=O)C(C)(C)C5CC[C@]43C)C12 (stereo partly drawn) [Compound 8]								45.8 ± 5.27 µM	45.7 ± 6.85 µM	activity against T47D (in words) (breast cancer T47D cells): no activity; activity against MDA-MB-231 (in words) [3]: no activity
C=C(COP(=O)(OCC)OCC)[C@@H]1CC[C@]2(C(=O)O)CC[C@]3(C)C(CCC4[C@@]5(C)CCC(O)C(C)(C)C5CC[C@]43C)C12 (stereo partly drawn) [Compound 9]								5.98 ± 0.43 µM	> 50 µM	IC50 fold higher than 30-phosphonate derivative of 3-acetylbetulinic acid ([1]; SNB-19): more than 4.5 fold; activity against T47D (in words) (breast cancer T47D cells): no activity; activity against MDA-MB-231 (in words) [3]: no activity
CCOP(=O)(C=C(C)C1CCC2(C(=O)O)CCC3(C)C(CCC4C5(C)CCC(=O)C(C)(C)C5CCC43C)C12)OCC (stereo not drawn) [R=29-P(O)(OC2H5)2, R1=O=, reference compound]								1.64 ± 0.18 µM	45.5 ± 3.72 µM	
CCOP(=O)(C=C(C)C1CCC2(C(=O)O)CCC3(C)C(CCC4C5(C)CCC(O)C(C)(C)C5CCC43C)C12)OCC (stereo not drawn) [R=29-P(O)(OC2H5)2, R1=OH, reference compound]								7.67 ± 1.57 µM	47.5 ± 2.96 µM	
C=C(CP(=O)(OCC)OCC)[C@@H]1CC[C@]2(C(=O)O)CC[C@]3(C)C(CCC4[C@@]5(C)CCC(OC(C)=O)C(C)(C)C5CC[C@]43C)C12 (stereo partly drawn) [R=30-P(O)(OC2H5)2, R1=CH3C(O)O, reference compound]								1.29 ± 0.15 µM	30.7 ± 2.17 µM	
C=C(CP(=O)(OCC)OCC)[C@@H]1CC[C@]2(C(=O)O)CC[C@]3(C)C(CCC4[C@@]5(C)CCC(O)C(C)(C)C5CC[C@]43C)C12 (stereo partly drawn) [R=30-P(O)(OC2H5)2, R1=OH, reference compound]								> 50 µM	> 50 µM	
C=C(C)[C@@H]1CC[C@]2(C(=O)O)CC[C@]3(C)[C@H](CC[C@@H]4[C@@]5(C)CC[C@H](O)C(C)(C)[C@@H]5CC[C@]43C)[C@@H]12 [betulinic acid, reference compound]										IC50 ([1]; Homo sapiens, SNB-19, Table 5, betulonic/betulinic acid derivatives, read-out: IC50, SNB-19): 20.1 ± 1.26 µM; IC50 ([2]; Homo sapiens, C32, Table 5, betulonic/betulinic acid derivatives, read-out: IC50, C-32): 8.63 ± 0.9 µM

— article PMC7866984, “Molecular Structure, In Vitro Anticancer Study and Molecular Docking of New Phosphate Derivatives of Betulin” (Molecules, 2021)
